Consider two compounds from PMC12476894, “Identification of α‑Azacyclic Acetamide-Based Inhibitors of P. falciparum Na^+ Pump (PfATP4) with Fast-Killing Asexual Blood-Stage Antimalarial Activity by Phenotypic Screening” (ACS Infectious Diseases, 2025).

The subject of data set [1] is P. falciparum 3D7 parasites (Pf3D7). The experiment in a line: 72 h SYBR Green growth inhibition, ABS P. falciparum 3D7 (Phillips Lab). In kind it is cell-based, Plasmodium falciparum. The settings on record: Plasmodium falciparum, 3D7; 72 h SYBR Green assay; mean ± SEM (n).
The test system of data set [2] is Dd2 PfATP4^F917L mutant clones. Description: 72 h SYBR Green growth inhibition, 2- or 3-selected Dd2 clones with PfATP4 F917L (Phillips Lab). In kind it is cell-based, Plasmodium falciparum. The settings on record: for EC50: Plasmodium falciparum. As for the experimental part: (§1) To confirm the MOA for the α-azacyclic acetamides against P. falciparum and to obtain potential information about whether or not they bind PfATP4 at an overlapping site with that of KAE609, we undertook resistance selections using PfDd2 parasites using the published cycling drug selection method. , α-Azacyclic acetamides 2 and 3 were chosen as representative examples of the pyrrole- and indole-based series, respectively. […] Additional cycles were performed at 20 × EC50, until resistant parasites were detected based on a fold change in EC50 compared to the parental clonal Dd2 line (Table S3). Resistant parasites were detected in the 2-selections in all 4 flasks after 4 pulses and for 3-selections in 3 flasks after 5 pulses. Clonal lines were generated from each flask, and one clone per flask was selected for WGS and EC50 determination (Tables S4 and S5). WGS analysis identified two single point mutations in PfATP4 that were not present in the original clonal Dd2 parasite line (Tables and S4). P412L was found in three of four flasks containing 2-selected resistance clones, and F917L was identified in all three flasks containing 3-selected clones and in the fourth flask containing 2-selected clones (Table S4). PfATP4 mutations identified by the WGS analysis in parasite lines were verified by PCR of the pfatp4 gene, followed by Sanger sequencing (Figures S5, S6 and Table S6). An additional protein coding gene (ribosomal protein S8e) was mutated in the 2-selections. However, this mutation was identified in only one of four sequenced clones and is therefore unlikely to be related to resistance to 2 (Figure S7). All three resistant clones derived from the 3-selections harbored an identical mutation in a gene (pfcpu) encoding a conserved protein of unknown function, which was absent in the parental line (Figure S8).
(§2) ABS P. falciparum 3D7, Dd2 or PfNF54^luc parasites (BEI resources) were cultured in RPMI 1640 medium (Millipore Sigma), supplemented with 25 mM HEPES, 0.5% Albumax-I (Thermo Scientific), 23 mM sodium bicarbonate, 92 μM hypoxanthine, and 10 μg/mL gentamicin sulfate at 37 °C, 5% CO2, using deidentified O^+ red blood cells (BioIVT) as previously described. − Growth inhibition assays were conducted in 96 well plate format using the SYBR Green or luciferase reporter assay depending on the strain with modifications as described , (see Supporting Information for a detailed description). Details for the luciferase reporter assay are described below under the BRRoK assay section.
(§3) EC50 and CC50 values were determined by nonlinear regression performed in GraphPad Prism Version 10. Unless otherwise specified, data were fitted to the log(inhibitor) vs response–variable slope with four parameters equation. […] For mutant cell lines and compound combinations where bottom plateau of zero growth was not reached, the bottom of the curve was defined at 0% based on background values obtained for parental Dd2 from the same study.
(§4) Resistant Dd2 parasites were selected using a high-pressure intermittent selection protocol using a previously described method. Selections were set up using 4 flasks per compound starting with approximately 3 × 10^9 parasites per flask (80 mL per flask, 4% hematocrit, 3% parasitemia at the beginning of each pulse, mostly ring-stage parasites via previous sorbitol synchronization. Pulse 1 and 2 (48 h) were conducted at 10xEC50, and subsequent pulses were conducted at 20xEC50. Parasites cleared within 48 h under these conditions. 3-Selections used a total of 4 pulses, while 2-selections required 5 pulses before resistant parasites emerged (Table S3). Culture media was replenished daily for a week after each pulse, then every 2 days with weekly replenishment of blood. Cultures were monitored by microscopy until recrudescence. Clonal parasites were obtained from each flask by limiting dilution and maintained in drug free RPMI-1640 media prior to being analyzed for EC50 shifts. […]

The next data set deals with Dd2-B2 (PfATP4^WT). Description: Drug susceptibility assay for cross-resistance profiling (Fidock Lab), parental line. Format: cell-based, Plasmodium falciparum. The following applies: for EC50: Plasmodium falciparum.
The test system of data set [3] is isolated Pf3D7 trophozoites, [Na+]cyt. The experiment in a line: Measurement of P. falciparum cytosolic Na+ concentration (SBFI). In kind it is cell-based, Plasmodium falciparum. The settings on record: 50 nM. On the procedure: Measurements were carried out in 96 well plates (excitation wavelengths: 340 and 380 nm; emission wavelength: 515 nm), as described previously. Fluorescence ratio values (340 nm/380 nm) were converted to [Na^+]cyt using a calibration procedure in which parasites were suspended in solutions of varying [Na^+] containing ionophores.

Another data set concerns Dd2^P412L (PfATP4^P412L). Description: Drug susceptibility assay for cross-resistance profiling (Fidock Lab), P412L. Format: cell-based, Plasmodium falciparum. The settings on record: Table 3 data set.
The test system of data set [4] is Dd2 PfATP4^P412L mutant clones. The experiment in a line: 72 h SYBR Green growth inhibition, 2-selected Dd2 clones with PfATP4 P412L (Phillips Lab). In kind it is cell-based, Plasmodium falciparum. The following applies: for EC50: Plasmodium falciparum. As for the experimental part:
as §1, §2, §3, §4

For data set [5], the system named is Pf3D7 trophozoite-stage parasites, cytosolic pH (pHcyt); cell-based assay for ATP4 inhibition. Description: P. falciparum cytosolic dose response pH assay (BCECF, with concanamycin A). The following applies: for EC50: Plasmodium falciparum, read-out: Pf3D7 pH EC50.
The test system of data set [6] is P. falciparum Dd2 (PfDd2) parasites. Description: 72 h SYBR Green growth inhibition, ABS P. falciparum Dd2 (Phillips Lab). Format: cell-based, Plasmodium falciparum. The settings on record: Plasmodium falciparum, DD2, 72 h, read-out: PfDd2 EC50.
A further data set concerns Dd2^L350H (PfATP4^L350H). The experiment in a line: Drug susceptibility assay for cross-resistance profiling (Fidock Lab), L350H. The settings on record: Table 3 data set. In kind it is cell-based, Plasmodium falciparum.
Data set [7] concerns P. falciparum NF54^luc parasites. Description: Luciferase reporter (LR) / BRRoK assay, PfNF54^luc. The settings on record: Plasmodium falciparum, NF54, Hec50; luciferase reporter, 6 h. In kind it is cell-based, Plasmodium falciparum. In general terms: In a reporter assay the amount or activity of a reporter protein is the signal.
Data set [8] can be described thus: Human HepG2 cytotoxicity assay (CellTiter Glo). Format: cell-based. The settings on record: HepG2 cells. In general terms: In ATP-based viability assays light output follows the ATP content of the culture.
Data set [9] relates to P. falciparum NF54^luc parasites. The experiment in a line: Luciferase reporter (LR) / BRRoK assay, PfNF54^luc. In kind it is cell-based. The settings on record: Plasmodium falciparum, NF54, Hec50, 72 h.
A further data set relates to PfD10 attB + yDHODH. Description: 72 h SYBR Green growth inhibition, strain expressing yeast DHODH. Format: cell-based. The settings on record: Plasmodium falciparum, read-out: PfD10 attB + yDHODH EC50, 72 h SYBR Green assay.
The test system of another data set is PfD10 attB. The experiment in a line: 72 h SYBR Green growth inhibition, PfD10 attB. Format: cell-based. The following applies: Plasmodium falciparum; 72 h SYBR Green assay.
A further data set can be described thus: in vitro. In kind it is in vitro ADME. The following applies: human liver microsomes, 1 µM compound, 0.4 mg/mL protein. Background: Liver microsomes are vesicles of endoplasmic reticulum, rich in cytochrome P450 enzymes.
A further data set in a line: physchem. The following applies: kinetic from dmso stock.
For data set [10], the system named is P. falciparum NF54^luc parasites. The experiment in a line: 72 h SYBR Green growth inhibition, PfNF54^luc. The following applies: Plasmodium falciparum, 72 h SYBR Green assay, read-out: PfNF54^luc EC50. In kind it is cell-based.
The mark [11] stands for this setting: DD2, read-out: EC50, 2-resistant Flask 1 Clone B6.
Where [12] appears, read: DD2, read-out: EC50, 3-resistant Flask 2 Clone D10.
Setting [13] is: DD2, read-out: EC50, 3-resistant Flask 3 Clone D8.
[14] abbreviates: DD2, read-out: EC50, 3-resistant Flask 4 Clone B3.
Setting [15] is: DD2, read-out: EC50, 3-selected flask #3 clone D8.
Setting [16] is: Plasmodium falciparum, DD2, 15-selected line.
Where [17] appears, read: DD2, read-out: EC50, 2-resistant Flask 2 Clone F9.
Where [18] appears, read: DD2, read-out: EC50, 2-resistant Flask 3 Clone F5.
The mark [19] stands for this setting: DD2, read-out: EC50, 2-resistant Flask 4 Clone E10.
The mark [20] stands for this setting: DD2, read-out: EC50, 2-selected flask #3 clone F5.

In brackets after ≈: the same amount, converted by molar mass. Several values for one entry are separate records, joined by “and”; a condition that tells them apart may be missing. Equal entries are not always repeated. Where two headings read alike, the source gives them in different places.

As a reminder, the EC50 is the concentration that produces a half-maximal response. As for `C[C@H]1Cc2c([nH]c3cc(Cl)c(F)cc23)[C@@]2(N1)C(=O)Nc1ccc(Cl)cc12` [KAE609, cipargamin, reference compound], the EC50 was found to be 0.001 ± 3.8e-05 µM in [1]; 0.012 ± 0.00098 µM in [2] (setting [11]); 0.012 ± 0.00034 µM in data set [2] (setting [12]); 0.012 ± 0.00097 µM in data set [2] (setting [13]); 0.014 ± 0.0009 µM in [2] (setting [14]); 0.012 ± 0.00058 µM in data set [2] (setting [15]). Moreover, the half-maximal effective concentration (EC50) in the data set with Dd2-B2 (PfATP4^WT) (DD2, 72 h, read-out: EC50, Dd2-B2) came out at 0.0013 ± 0.0001 µM; in the data set on Dd2-B2 (PfATP4^WT) (DD2, read-out: EC50, Dd2-B2), 0.0021 µM; in the data set on Dd2^P412L (PfATP4^P412L) (setting [16]) it was 0.011 ± 0.0007 µM; in data set [4] (setting [17]), 0.014 ± 0.0014 µM; in [4] (setting [18]), 0.012 ± 0.0014 µM; in data set [4] (setting [19]), 0.014 ± 0.0011 µM. The concentration giving a half-maximal response (EC50) worked out at 0.013 ± 0.0011 µM in [4] (setting [20]), 0.003 ± 0.0021 µM in [5], 0.0012 ± 8.7e-05 µM in data set [6] and 0.0048 ± 0.0003 µM in the data set with Dd2^L350H (PfATP4^L350H) (setting [16]). For the same compound, in [2], the “Fold EC50 change compared to WT Dd2, 3-selected flask #3 clone D8” value is on record as 11 fold. Besides, in the data set on Dd2-B2 (PfATP4^WT) (parent, Table S8), the “Fold change, Dd2-B2” value turned out to be 1 fold. Also, in [3], the “increase in [Na+]cyt (in words)” value is “increase in [Na^+]cyt”. The “EC50 fold-change vs Dd2-B2, Dd2^P412L” value in the data set with Dd2^P412L (PfATP4^P412L) is 8.5 fold. Further, in data set [4], the “Fold EC50 change compared to WT Dd2, 2-selected flask #3 clone F5” value is reported as 11 fold. The “difference between pH EC50 and growth inhibition EC50” value in [5] (Pf3D7, 72 h SYBR Green vs pH assay) was no more than 3.2 fold. The “effect on parasite cytosolic pH (pHcyt) in presence of CMA (in words)” value in [5] (Pf3D7, CMA 50 nM) is on record as “increase in pHcyt”. The “EC50 fold-change vs Dd2-B2, Dd2^L350H” value in the data set on Dd2^L350H (PfATP4^L350H) was 3.7 fold and 4- to 6 fold.
The term CC50 denotes the concentration that lowers cell viability or growth by half. A low value points to greater toxicity to the cells. Usually microsomal CLint stands for a measure of how fast metabolising enzymes remove a compound, apart from limits set by blood flow. The solubility is the concentration that dissolves in the medium under given conditions. Higher therefore signals a readily soluble substance. Regarding `COc1ccc(Cl)cc1NC(=O)Cn1cccc1-c1nnc(C2CC2)o1` [compound 1, N-(5-chloro-2-methoxyphenyl)-2-(2-(5-cyclopropyl-1,3,4-oxadiazol-2-yl)-1H-pyrrol-1-yl)acetamide], the EC50 in data set [1] was 2.5 ± 0.26 µM; in data set [2] (setting [11]) it was greater than 10 µM; in data set [2] (setting [12]) it was greater than 10 µM; in data set [2] (setting [13]) it was greater than 10 µM; in data set [2] (setting [14]), greater than 10 µM; in data set [2] (setting [15]) it was 12 ± 0.46 µM. The EC50 in data set [7] was 3.2 ± 0.016 µM; in data set [4] (setting [17]) it was 7.5 ± 2.4 µM; in data set [4] (setting [18]), 7.6 ± 2 µM; in data set [4] (setting [19]), 9.4 ± 2.5 µM; in data set [4] (setting [20]), 8.3 ± 1.1 µM; in [5], 4.5 ± 2 µM. The half-maximal effective concentration (EC50) is 2.4 ± 0.13 µM in data set [6]; 1.6 ± 0.075 µM in data set [9]; 3.2 µM in the data set with PfD10 attB + yDHODH; 2.9 µM in the data set on PfD10 attB; 3 ± 0.93 µM in data set [10]. Further, the “Fold EC50 change compared to WT Dd2, 3-selected flask #3 clone D8” value in data set [2] was found to be 4.6 fold. For the same compound, the “Fold EC50 change compared to WT Dd2, 2-selected flask #3 clone F5” value in [4] worked out at 3.4 fold. The 50% cytotoxic concentration (CC50) at 96 h in data set [8] was greater than 50 µM. Moreover, in the data set “in vitro”, the microsomal CLint was determined as 279 µL/min/mg. Also, the solubility in “physchem” (pH 2, simulated gastric fluid) is 25 µM (≈ 9.32 µg/mL); in the data set “physchem” (pH 6.5, aqueous buffer), 12.5 µM (≈ 4.66 µg/mL).
